A short description of series [1]: Percentage ionization was measured. It counts as ADME.
A short description of series [2]: Serum protein binding ability was measured. The class given is ADME.

Some results are limits rather than exact numbers.

By pKa is commonly meant the negative logarithm of the acid dissociation constant. Read a low pKa as a stronger acid or weaker base. As to `CC[C@H]1OC(=O)[C@H](C)[C@@H](O[C@H]2C[C@@](C)(OC)[C@@H](O)[C@H](C)O2)[C@H](C)[C@@H](O[C@@H]2O[C@H](C)C[C@H](N(C)C)[C@H]2O)[C@](C)(O)C[C@@H](C)/C(=N\OCOCCOC)[C@H](C)[C@@H](O)[C@]1(C)O` [ROXITHROMYCIN], in series [1], the Ionization is given as above 96%. Besides, the Binding in series [2] is on record as 95%. The compound also yielded a pKa in “physchem” of 9.2.
In the same order, the values of `CC[C@H]1OC(=O)[C@H](C)[C@@H](O[C@H]2C[C@@](C)(OC)[C@@H](O)[C@H](C)O2)[C@H](C)[C@@H](O[C@@H]2O[C@H](C)C[C@H](N(C)C)[C@H]2O)[C@](C)(O)C[C@@H](C)C(=O)[C@H](C)[C@@H](O)[C@]1(C)O` [ERYTHROMYCIN] are above 96%, 80% and 8.8.

(Values after ChEMBL document CHEMBL1125627 (J Med Chem, 1991).)
